{"source": "patent US20180296630A1", "about": "“METHODS AND COMPOSITIONS FOR PREVENTING OR TREATING OPHTHALMIC CONDITIONS” (Stealth BioTherapeutics Corp, priority 2012, published 2018)", "key": {"[1]": {"test_system": "mouse model of retina degeneration", "assay": "Mouse model of retina degeneration (ONL thickness, PNA cone staining)", "format": "in vivo", "settings": "compared to untreated mice", "source_text": "CNV is induced in the eye with laser burns. (see Example 6). Mouse models of retinal degeneration have been investigated for many years in the hope of understanding the causes of photoreceptor cell death. Naturally occurring mouse mutants that manifest degeneration of photoreceptors in the retina with preservation of all other retinal cell types have been found: retinal degeneration (formerly rd, identical with rodless retina, r, now Pde6b rd1); Purkinje cell degeneration (pcd); nervous (nr); retinal degeneration slow (rds, now Prph Rd2); retinal degeneration 3 (rd3); motor neuron degeneration (mnd); retinal degeneration 4 (Rd4); retinal degeneration 5 (rd5); vitiligo (vir, now Mitf mi-vit); retinal degeneration 6 (rd6); retinal degeneration 7 (rd7); neuronal ceroid lipofuscinosis (nclf); retinal degeneration 8 (rd8); retinal degeneration 9 (Rd9); retinal degeneration 10 (rd10); and cone photoreceptor function loss (cpfl1).\nFIG. 28 is a series of micrographs showing the thickness of the retinal outer nuclear layer (ONL) in a mouse model of retina degeneration in control and D-Arg-2′,6′-Dmt-Lys-Phe-NH2-treated mice."}, "GTM and HTM cells": {"test_system": "GTM and HTM cells", "assay": "Oxidative stress induced by hydrogen peroxide in GTM and HTM cells (collective conclusion)", "format": "cell-based, human", "description": "The cells were divided into three groups: “Group A” cells were exposed to hydrogen peroxide prior to administration of D-Arg-2′,6′-Dmt-Lys-Phe-NH2. “Group B” cells were exposed to D-Arg-2′,6′-Dmt-Lys-Phe-NH2 prior to administration of hydrogen peroxide. “Group C” cells were administered D-Arg-2′,6′-Dmt-Lys-Phe-NH2 and hydrogen peroxide simultaneously.\nThe effects of D-Arg-2′,6′-Dmt-Lys-Phe-NH2 on sustained oxidative injury of GTM and HTM cells was examined. Cells were pre-treated with 10^−6, 10^−7, 10^−8M of D-Arg-2′,6′-Dmt-Lys-Phe-NH2 for 1 h, and then incubated with 200 μM H2O2 for 24 h to investigate the protective effect of D-Arg-2′,6′-Dmt-Lys-Phe-NH2 in sustained oxidative stress."}, "Trx2 in HRECs": {"test_system": "Trx2 in HRECs", "assay": "Trx2 expression in high glucose-treated HRECs (real-time PCR, Western blot)", "format": "cell-based, human", "settings": "30 mM glucose co-treatment; 24 h and 48 h", "description": "D-Arg-2′,6′-Dmt-Lys-Phe-NH2 increased the expression of Trx2 in the high glucose-treated HRECs. […] The mRNA expression level of Trx2 was measured by quantitative real-time PCR. Relative mRNA levels of Trx2 were normalized by 18S mRNA levels (* p<0.05 vs. the normal glucose medium group and the 30 mM high glucose treated group). Three independent samples were used for each time point."}, "[2]": {"test_system": "primary human retinal pigment epithelial (RPE) cells", "assay": "Viability of primary RPE cells incubated with peptide alone (MTT)", "format": "cell-based", "settings": "different concentrations of peptide alone; 24 h", "description": "Primary retinal pigment epithelial (RPE) cells were cultured to test the effects of the aromatic-cationic peptides of the invention in preventing or reducing oxidative damage in these cells. Methods useful for the study of primary retinal pigment epithelial cells have been described. See, Dunn et al., ARPE-19, A Human Retinal Pigment Epithelial Cell Line with Differentiated Properties, Experimental Eye Research, 1996, 62(2): 155-170. […] Primary cultured human RPE cells were incubated with different concentrations of D-Arg-2′,6′-Dmt-Lys-Phe-NH2 alone for a period of 24 h, and cell viability was determined by a MTT assay (FIG. 22)."}, "[3]": {"test_system": "STZ diabetic rats with intraocular ischemia/reperfusion", "assay": "Efficacy Pharmacological Test 1: diabetic rats, intraocular ischemia/reperfusion, visual cell layer edema"}, "[4]": {"test_system": "human retinal epithelial cells (HREC)", "assay": "Survival of HRECs in high glucose (Annexin V/PI, flow cytometry)", "format": "cell-based", "settings": "for survival ratio for HRECs (Q3): 24 hours", "source_text": "Methods of HREC culture useful in the studies of the present invention are known. See generally, Li B, Tang S B, Zhang G, Chen J H, Li B J. Culture and characterization of human retinal capillary endothelial cell. Chin Ophthal Res 2005; 23: 20-2; Premanand C, Rema M, Sameer M Z, Sujatha M, Balasubramanyam M. Effect of curcumin on proliferation of human retinal endothelial cells under in vitro conditions. Invest Ophthalmol Vis Sci 2006; 47: 2179-84.\nBriefly, HREC cells were divided into three groups: a normal control group; a group administered 30 mM glucose; and a group administered 30 mM glucose+D-Arg-2′,6′-Dmt-Lys-Phe-NH2. Survival of HRECs in high glucose co-treated with different concentrations of D-Arg-2′,6′-Dmt-Lys-Phe-NH2 (10 nM, 100 nM, 1 μM, 10 μM) was measured using an Annexin V+PI assay and flow cytometry. See generally, Koopman, G., Reutelingsperger, C. P., Kuijten, G. A. M., Keehnen, R. M. J., Pals, S. T., and van Oers, M. H. J. 1994. Annexin V for flow cytometric detection of phosphatidylserine expression on B cells undergoing apoptosis. Blood 84: 1415; Homburg, C. H., de Haas, M., von dem Borne, A. E., Verhoeven, A. J., Reutelingsperger, C. P., and Roos, D. 1995. Human neutrophils lose their surface Fc gamma RIII and acquire Annexin V binding sites during apoptosis in vitro. Blood 85: 532; Vermes, I., Haanen, C., Steffens-Nakken, H., and Reutelingsperger, C. 1995. A novel assay for apoptosis—flow cytometric detection of phosphatidylserine expression on early apoptotic cells using fluorescein labelled Annexin V. J. Immunol. Meth. 184: 39; Fadok, V. A., Voelker, D. R., Campbell, P. A., Cohen, J. J., Bratton, D. L., and Henson, P. M. 1992. Exposure of phosphatidylserine on the surface of apoptotic lymphocytes triggers specific recognition and removal by macrophages. J. Immunol. 148: 2207.\nThe survival of HRECs in high glucose co-treated with D-Arg-2′,6′-Dmt-Lys-Phe-NH2 was tested at 24 h and 48 h."}}, "data": [{"substance": "D-Arg-2′,6′-Dmt-Lys-Phe-NH2", "values": [{"measurement": "cone cell density (PNA-stained retinal flat mounts)", "setting": "[1]", "result": "greater"}, {"measurement": "rows of cells in the retinal outer nuclear layer (ONL)", "setting": "[1]", "result": "retained a greater number of rows of cells"}, {"measurement": "concentration at which sustained and acute oxidative stress induced by hydrogen peroxide can be prevented", "setting": "GTM and HTM cells", "result": "> 10^−9 M"}, {"measurement": "expression of Trx2", "setting": "Trx2 in HRECs", "result": "increased"}, {"measurement": "cell viability (MTT assay)", "setting": "[2]", "result": "did not adversely effect these cells"}, {"measurement": "loss of nuclei in the inner retinal layer", "setting": "[3]; compared to the diabetic control group", "result": "absent, or much diminished"}, {"measurement": "edema of the visual cell layer after ischemia/reperfusion", "setting": "[3]; diabetic groups, oral, parenteral or eye drops twice per day", "result": "no edema or very low levels of edema"}, {"measurement": "survival ratio for HRECs (Q3)", "setting": "[4]; 10 nM co-treatment with 30 mM glucose", "result": 84.3, "unit": "%"}, {"measurement": "survival ratio for HRECs (Q3)", "setting": "[4]; 100 nM co-treatment with 30 mM glucose", "result": 90.7, "unit": "%"}, {"measurement": "survival ratio for HRECs (Q3)", "setting": "[4]; 1 μM co-treatment with 30 mM glucose", "result": 92.8, "unit": "%"}, {"measurement": "survival ratio for HRECs (Q3)", "setting": "[4]; 10 μM co-treatment with 30 mM glucose", "result": 94.3, "unit": "%"}, {"measurement": "survival of HRECs in high glucose", "setting": "[4]; co-treatment, tested at 24 h and 48 h", "result": "significantly improved"}]}]}
